Experiments:
wheat, winter = assay: Test C postemergence; assay type: in vivo, Triticum aestivum; conditions: for Plant response rating, Wheat: scale 0 to 100 (0 no effect, 100 complete control)
Excerpt: (§1) Seeds of plant species selected from blackgrass (Alopecurus myosuroides), Italian ryegrass (Lolium multiflorum), wheat, winter (winter wheat, Triticum aestivum), galium (catchweed bedstraw, Galium aparine), corn (Zea mays), large (Lg) crabgrass (Digitaria sanguinalis), giant foxtail (Setaria faberii), johnsongrass (Sorghum halepense), lambsquarters (Chenopodium album), morningglory (Ipomoea coccinea), yellow nutsedge (Cyperus esculentus), pigweed (Amaranthus retroflexus), ragweed (common ragweed, Ambrosia elatior), soybean (Glycine max), barnyardgrass (Echinochloa crus-galli), oilseed rape (Brassica napus), waterhemp (common waterhemp, Amaranthus rudis), kochia (Kochia scoparia), wild oat (Avena fatua), surinam grass (Brachiaria decumbens), foxtail, green (green foxtail, Setaria viridis), goosegrass (Eleusine indica), bromegrass, downy (downy bromegrass, Bromus tectorum), nightshade (eastern black nightshade, Solanum ptycanthum), cocklebur (common cocklebur, Xanthium strumarium), cupgrass, woolly (woolly cupgrass, Eriochloa villosa), bermudagrass (Cynodon dactylon), sunflower, (common oilseed sunflower, Helianthus annuus), Russian thistle (Salsola kali), and velvetleaf (Abutilon theophrasti) were planted into a blend of loam soil and sand and treated preemergence with test chemicals formulated in a non-phytotoxic solvent mixture which included a surfactant.
(§2) At the same time, plants selected from these crop and weed species and also barley, winter (winter barley, Hordeum vulgare), windgrass (Apera spica-venti), chickweed (common chickweed, Stellaria media), deadnettle (henbit deadnettle, Lamium amplexicaule), and canarygrass (littleseed canarygrass, Phalaris minor) were planted in pots containing Redi-Earth® planting medium (Scotts Company, 14111 Scottslawn Road, Marysville, Ohio 43041) comprising spaghnum peat moss, vermiculite, wetting agent and starter nutrients and treated with postemergence applications of test chemicals formulated in the same manner. Plants ranged in height from 2 to 18 cm (1- to 4-leaf stage) for postemergence treatments. Treated plants and controls were maintained in a greenhouse for 13 to 15 days, after which time all species were compared to controls and visually evaluated. Plant response ratings, summarized in Table C, are based on a scale of 0 to 100 where 0 is no effect and 100 is complete control. A dash (-) response means no test result.

barnyardgrass = assay: Test A postemergence; assay type: in vivo, Echinochloa crus-galli
Summary of the method: (§3)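 Greenhouse pot test, loam/sand soil. Formulation: non-phytotoxic solvent mix plus surfactant. Pre: directed spray onto soil after sowing. Post: plants at 1–2 leaf, 2–10 cm. Rated visually vs untreated controls at ~10 d, 0 (no effect) to 100 (complete control).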

morningglory = assay: Test C postemergence; assay type: in vivo, Ipomoea coccinea; conditions: for Plant response rating, Morningglory: scale 0 to 100 (0 no effect, 100 complete control)
Summary of the method: (§4)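 Greenhouse herbicide screen. Pre: seeded loam/sand, sprayed at planting. Post: 1–4 leaf plants (2–18 cm) in peat-based mix. Formulation: solvent mixture + surfactant, non-phytotoxic. Readout: visual % control vs untreated, 13–15 d; dash = not tested.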

velvetleaf = assay: Test A postemergence; assay type: in vivo, Abutilon theophrasti
Summary of the method: as §3

ragweed = assay: Test C postemergence; assay type: in vivo, Ambrosia elatior; conditions: for Plant response rating, Ragweed: scale 0 to 100 (0 no effect, 100 complete control)
Excerpt: as §1, §2

yellow nutsedge = assay: Test C postemergence; assay type: in vivo, Cyperus esculentus; conditions: for Plant response rating, Nutsedge, Yellow: scale 0 to 100 (0 no effect, 100 complete control)
Summary of the method: as §4

giant foxtail [1] = assay: Test C postemergence; assay type: in vivo, Setaria faberii; conditions: for Plant response rating, Foxtail, Giant: scale 0 to 100 (0 no effect, 100 complete control)
Excerpt: as §1, §2

wheat = assay: Test A postemergence; assay type: in vivo, Triticum aestivum
Summary of the method: as §3

galium = assay: Test C postemergence; assay type: in vivo, Galium aparine; conditions: for Plant response rating, Galium: scale 0 to 100 (0 no effect, 100 complete control)
Excerpt: as §1, §2

sedge, umbrella = assay: Test B flooded paddy test; assay type: in vivo, Cyperus difformis; conditions: Flood, 250 g ai/ha; 0 to 100 scale where 0 is no effect and 100 is complete control
Summary of the method: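 Visual ratings on a 0 to 100 scale, where 100 means complete control, compared treated plants with controls after 13 to 15 days in a greenhouse. Treatment went into paddy water 3 cm deep over the soil, applied to plants at the 2-leaf stage.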

giant foxtail [2] = assay: Test A preemergence; assay type: in vivo, Setaria faberii; conditions: for Plant response rating, Foxtail, Giant: 125 g ai/ha, 0 to 100 scale where 0 is no effect and 100 is complete control
Summary of the method: as §3

[3] = Postemergence, 31 g ai/ha, 13 to 15 days
[4] = 125 g ai/ha, 0 to 100 scale where 0 is no effect and 100 is complete control
[5] = 500 g ai/ha, 0 to 100 scale, 0 no effect, 100 complete control
[6] = 16 g ai/ha, postemergence, 0 is no effect, 100 is complete control
[7] = 125 g ai/ha, postemergence, visual rating
[8] = 31 g ai/ha, 0 to 100 scale, 0 no effect, 100 complete control

SMILES: N#Cc1cccc(Oc2ncc(F)cn2)c1-n1cc(Br)cn1 [Compound 62]
- Plant response rating (0 to 100), Wheat (wheat, winter; 125 g ai/ha, postemergence): 5
- Plant response rating (0 to 100), Wheat (wheat, winter; 250 g ai/ha, postemergence): 20
- Plant response rating, Wheat (wheat, winter; [3]): 0
- Plant response rating, Wheat (wheat, winter; Postemergence, 62 g ai/ha): 0
- Plant response rating, Barnyardgrass (barnyardgrass; [4]): 90
- Plant response rating, Barnyardgrass (barnyardgrass; [5]): 100
- Plant response rating (0 to 100), Morningglory (morningglory; 125 g ai/ha, postemergence): 85
- Plant response rating (0 to 100), Morningglory (morningglory; 250 g ai/ha, postemergence): 90
- Plant response rating, Morningglory (morningglory; [3]): 65
- Plant response rating, Morningglory (morningglory; Postemergence, 62 g ai/ha): 70
- Plant response rating, Velvetleaf (velvetleaf; [4]): 100
- Plant response rating, Velvetleaf (velvetleaf; [5]): 100
- Plant response rating (0 to 100), Ragweed (ragweed; 125 g ai/ha, postemergence): 50
- Plant response rating (0 to 100), Ragweed (ragweed; 250 g ai/ha, postemergence): 50
- Plant response rating, Ragweed (ragweed; [3]): 40
- Plant response rating, Ragweed (ragweed; Postemergence, 62 g ai/ha): 40
- Plant response rating (0 to 100), Nutsedge, Yellow (yellow nutsedge; 125 g ai/ha, postemergence): 5
- Plant response rating (0 to 100), Nutsedge, Yellow (yellow nutsedge; 250 g ai/ha, postemergence): 15
- Plant response rating, Nutsedge, Yellow (yellow nutsedge; [3]): 0
- Plant response rating, Nutsedge, Yellow (yellow nutsedge; Postemergence, 62 g ai/ha): 5
- Plant response rating (0 to 100), Foxtail, Giant (giant foxtail [1]; 125 g ai/ha, postemergence): 20
- Plant response rating (0 to 100), Foxtail, Giant (giant foxtail [1]; 250 g ai/ha, postemergence): 25
- Plant response rating, Foxtail, Giant (giant foxtail [1]; [3]): 5
- Plant response rating, Foxtail, Giant (giant foxtail [1]; Postemergence, 62 g ai/ha): 10
- Plant response rating, Wheat (wheat; [4]): 20
- Plant response rating, Wheat (wheat; [5]): 100
- Plant response rating (0 to 100), Galium (galium; 125 g ai/ha, postemergence): 80
- Plant response rating (0 to 100), Galium (galium; 250 g ai/ha, postemergence): 95
- Plant response rating, Galium (galium; [3]): 65
- Plant response rating, Galium (galium; Postemergence, 62 g ai/ha): 65
- Plant response rating, Sedge, Umbrella (sedge, umbrella): 80
- Plant response rating, Foxtail, Giant (giant foxtail [2]): 90
- Foxtail, Giant plant response rating (giant foxtail [2]; 500 g ai/ha, 0 to 100 scale, 0 no effect, 100 complete control, approx. 10 days): 100

SMILES: FCc1cccc(Oc2ncc(Br)cn2)c1-n1cc(C(F)(F)F)cn1 [Compound 120]
- Plant response rating (0 to 100), Wheat (wheat, winter; [6]): 0
- Plant response rating, Wheat (wheat, winter; [7]): 0
- Plant response rating, Wheat (wheat, winter; Postemergence, 62 g ai/ha): 0
- Plant response rating, Barnyardgrass (barnyardgrass; [8]): 20
- Plant response rating, Barnyardgrass (barnyardgrass; [4]): 80
- Plant response rating (0 to 100), Morningglory (morningglory; [6]): 20
- Plant response rating, Morningglory (morningglory; [7]): 80
- Plant response rating, Morningglory (morningglory; Postemergence, 62 g ai/ha): 35
- Plant response rating (0 to 100), Ragweed (ragweed; [6]): 10
- Plant response rating, Ragweed (ragweed; [7]): 60
- Plant response rating, Ragweed (ragweed; Postemergence, 62 g ai/ha): 25
- Plant response rating (0 to 100), Nutsedge, Yellow (yellow nutsedge; [6]): 0
- Plant response rating, Nutsedge, Yellow (yellow nutsedge; [7]): 25
- Plant response rating, Nutsedge, Yellow (yellow nutsedge; Postemergence, 62 g ai/ha): 10
- Plant response rating (0 to 100), Foxtail, Giant (giant foxtail [1]; [6]): 5
- Plant response rating, Foxtail, Giant (giant foxtail [1]; [7]): 35
- Plant response rating, Foxtail, Giant (giant foxtail [1]; Postemergence, 62 g ai/ha): 10
- Plant response rating, Wheat (wheat; [8]): 0
- Plant response rating (0 to 100), Galium (galium; [6]): 30
- Plant response rating, Galium (galium; [7]): 60
- Plant response rating, Galium (galium; Postemergence, 62 g ai/ha): 30
- Plant response rating, Sedge, Umbrella (sedge, umbrella): 95
- Foxtail, Giant plant response rating (0 to 100 scale) (giant foxtail [2]; 31 g ai/ha): 50
- Plant response rating, Foxtail, Giant (giant foxtail [2]): 100

From US9695155B2, “Herbicidal substituted pyrimidinyloxy benzene compounds” (E. I. DU PONT DE NEMOURS AND COMPANY, priority 2013, dated 2017)
